The text below walks through data of article PMC12374583, “Targeting complement C3 with Tanshinone I decreases microglia-mediated synaptic engulfment to exert antidepressant effects” (Theranostics, 2025).

Test [1] addresses T1, C3 (complement C3), RED-NHS labelled.
T1 construct: human purified C3 equally possible
Nature of the test: microscale thermophoresis (Monolith NT.[…]). The class given is binding. Conditions: 25 °C, PBS with 5% DMSO compound stocks, Tan I up to 25 µM.

In test [2] the target is T2, C3 (BV2 cell proteins) (Mus musculus, UniProt P01027).
T2 construct: endogenous C3 in BV2 (mouse microglial line) protein extract; detected by Western blot, 130-250 kDa band identified by MS
T2 sequence (P01027 25-666): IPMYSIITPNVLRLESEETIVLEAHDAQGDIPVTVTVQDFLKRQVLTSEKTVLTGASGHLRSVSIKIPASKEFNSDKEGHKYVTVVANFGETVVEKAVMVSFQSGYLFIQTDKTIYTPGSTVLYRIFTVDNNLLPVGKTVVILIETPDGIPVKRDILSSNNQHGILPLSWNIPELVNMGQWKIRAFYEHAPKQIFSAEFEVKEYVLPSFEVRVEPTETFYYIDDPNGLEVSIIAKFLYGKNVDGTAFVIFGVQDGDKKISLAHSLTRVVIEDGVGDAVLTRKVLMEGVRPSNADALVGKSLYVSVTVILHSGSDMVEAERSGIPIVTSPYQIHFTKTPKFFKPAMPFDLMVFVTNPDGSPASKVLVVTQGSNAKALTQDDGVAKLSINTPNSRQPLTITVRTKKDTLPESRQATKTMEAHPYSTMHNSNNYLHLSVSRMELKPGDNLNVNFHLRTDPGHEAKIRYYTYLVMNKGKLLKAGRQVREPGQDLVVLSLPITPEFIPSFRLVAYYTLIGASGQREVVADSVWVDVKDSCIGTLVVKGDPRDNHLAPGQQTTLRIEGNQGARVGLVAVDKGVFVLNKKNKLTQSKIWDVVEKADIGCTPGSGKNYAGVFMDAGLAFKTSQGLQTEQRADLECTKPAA
T2 sequence (P01027 671-1663): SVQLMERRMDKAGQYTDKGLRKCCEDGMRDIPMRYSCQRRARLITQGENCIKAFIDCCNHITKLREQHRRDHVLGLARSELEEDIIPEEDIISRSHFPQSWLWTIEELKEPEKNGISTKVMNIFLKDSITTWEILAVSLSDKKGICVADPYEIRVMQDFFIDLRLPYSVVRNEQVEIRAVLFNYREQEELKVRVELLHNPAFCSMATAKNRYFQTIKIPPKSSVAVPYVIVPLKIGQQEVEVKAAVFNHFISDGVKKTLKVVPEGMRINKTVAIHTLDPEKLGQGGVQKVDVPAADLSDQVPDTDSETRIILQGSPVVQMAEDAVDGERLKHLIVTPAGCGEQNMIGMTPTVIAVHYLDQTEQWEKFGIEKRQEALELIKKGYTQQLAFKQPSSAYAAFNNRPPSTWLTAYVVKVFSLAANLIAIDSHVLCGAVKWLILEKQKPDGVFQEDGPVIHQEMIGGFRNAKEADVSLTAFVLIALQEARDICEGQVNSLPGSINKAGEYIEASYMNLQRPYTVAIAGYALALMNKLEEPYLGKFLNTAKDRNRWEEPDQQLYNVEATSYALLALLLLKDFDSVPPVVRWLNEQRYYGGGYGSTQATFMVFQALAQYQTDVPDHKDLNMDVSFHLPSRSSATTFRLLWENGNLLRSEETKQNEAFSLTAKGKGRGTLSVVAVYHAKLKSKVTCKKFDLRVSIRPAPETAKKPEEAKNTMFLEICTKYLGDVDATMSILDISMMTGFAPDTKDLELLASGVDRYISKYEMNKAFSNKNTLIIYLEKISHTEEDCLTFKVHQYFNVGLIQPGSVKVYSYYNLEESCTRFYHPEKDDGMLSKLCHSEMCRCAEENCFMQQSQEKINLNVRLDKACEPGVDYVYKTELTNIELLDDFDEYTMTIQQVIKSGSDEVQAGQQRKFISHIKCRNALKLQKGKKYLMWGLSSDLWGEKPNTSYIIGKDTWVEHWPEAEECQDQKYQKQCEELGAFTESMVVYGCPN
Nature of the test: CETSA in BV2 protein extract, Western blot. The class given is biochemical. Conditions: Tan I 1 h; 40-65 °C, 3 min.

The target of test [3] is T2, C3 (BV2 cell proteins). In words: DARTS (Pronase), MS and Western blot. It is filed as biochemical. Conditions: 200 µM Tan I, 1 h; Pronase 30 min.

`Cc1coc2c1C(=O)C(=O)c1c-2ccc2c(C)cccc12` [Tan I] registered a Kd in test [1] of 3.75 ± 3.31 µM. On C3 (BV2 cell proteins) [2], the “thermal stabilisation (CETSA)” value is reported as “Tan I significantly enhances the thermal stability of C3 in a certain temperature range”. Also, the “protection from proteolysis (DARTS)” value at C3 (BV2 cell proteins) [3] is listed as “Tan I protected C3 from proteolytic degradation”.
